Our source for the IC50 values is patent publication US20100311714A1, “1H-IMIDAZO[4,5-c]QUINOLINONE COMPOUNDS” (priority 2009, published 2010).

T1 sequence (P42338 with tags, fused parts or gaps limits assumed): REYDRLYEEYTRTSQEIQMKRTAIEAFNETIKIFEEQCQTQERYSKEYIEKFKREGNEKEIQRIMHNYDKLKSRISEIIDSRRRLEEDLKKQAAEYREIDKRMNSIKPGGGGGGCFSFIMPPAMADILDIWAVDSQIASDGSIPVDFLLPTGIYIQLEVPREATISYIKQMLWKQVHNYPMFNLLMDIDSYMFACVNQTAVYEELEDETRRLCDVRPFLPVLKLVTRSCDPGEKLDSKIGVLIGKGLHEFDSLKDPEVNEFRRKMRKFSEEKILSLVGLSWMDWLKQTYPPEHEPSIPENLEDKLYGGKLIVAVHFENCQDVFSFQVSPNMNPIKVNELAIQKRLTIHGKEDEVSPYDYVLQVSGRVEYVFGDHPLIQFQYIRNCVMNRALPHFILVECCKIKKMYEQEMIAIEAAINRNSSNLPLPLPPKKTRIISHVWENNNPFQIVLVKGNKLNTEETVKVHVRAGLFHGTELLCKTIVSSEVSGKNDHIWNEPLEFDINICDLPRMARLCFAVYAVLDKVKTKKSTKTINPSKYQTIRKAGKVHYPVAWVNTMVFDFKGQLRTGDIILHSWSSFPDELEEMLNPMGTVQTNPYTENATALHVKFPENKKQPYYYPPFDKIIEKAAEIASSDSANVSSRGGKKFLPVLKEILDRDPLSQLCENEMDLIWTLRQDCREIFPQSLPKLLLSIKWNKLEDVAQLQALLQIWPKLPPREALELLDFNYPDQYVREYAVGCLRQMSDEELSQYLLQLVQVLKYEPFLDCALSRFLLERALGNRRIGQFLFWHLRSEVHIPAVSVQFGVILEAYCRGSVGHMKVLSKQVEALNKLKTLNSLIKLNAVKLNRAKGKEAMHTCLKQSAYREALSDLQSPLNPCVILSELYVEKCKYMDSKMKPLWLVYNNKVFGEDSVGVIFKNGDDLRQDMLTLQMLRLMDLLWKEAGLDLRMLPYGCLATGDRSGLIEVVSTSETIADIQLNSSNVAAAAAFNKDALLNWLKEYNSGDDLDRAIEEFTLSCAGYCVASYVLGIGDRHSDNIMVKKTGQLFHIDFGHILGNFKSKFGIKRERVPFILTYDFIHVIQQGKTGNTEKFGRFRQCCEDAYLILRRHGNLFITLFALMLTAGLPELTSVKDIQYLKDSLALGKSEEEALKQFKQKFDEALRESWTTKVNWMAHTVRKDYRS

The first assay concerns the target T1, PI3K beta (Homo sapiens, UniProt P42338).
T1 construct: for the full-length p110-b subunit are generated and fused by overlapping PCR; His tag (C); made in house; host or cells: baculovirus BV949; Tn5 (Trichoplusia ni) or TiniPro insect cells
Put plainly: PI3K beta kinase assay (Kinase-Glo luminescence). Format: biochemical. The conditions noted are these: read-out: EPK_PI3Kbeta/IC50. On the procedure:
In a more preferred assay, the kinase reaction is performed in a final volume of 10 μL per well of a low volume non binding CORNING, 384 well black plate (Cat. No. #3676). The final concentrations of ATP and phosphatidyl inositol (PI) in the assay are 1 μM and 10 μg/mL respectively. The reaction is started by the addition of ATP.
The components of the assay are added per well as follows:
50 nL test compounds in 90% DMSO per well, in columns 1-20, 8 concentrations (⅓ and 1/3.33 serial dilution step) in single. • Low control: […] of 90% DMSO in half the wells of columns 23-24 (0.45% in final). • High control: 50 nL of reference compound (e.g. compound of Example 7 in WO 2006/122806) in the other half of columns 23-24 (2.5 μM in final). • Standard: 50 nL of reference compound as just mentioned diluted as the test compounds in columns 21-22 • 20 mL ‘buffer’ are prepared per assay: • 200 μL of 1M TRIS HCl pH7.5 (10 mM in final) • 60 μL of 1M MgCl2 (3 mM in final) • 500 μL of 2M NaCl (50 mM in final) • 100 μL of 10% CHAPS (0.05% in final) • 200 μL of 100 mM DTT (1 mM in final) • 18.94 mL of nanopure water • 10 mL ‘PI’ are prepared per assay: • 200 μL of 1 mg/ml L-alpha-Phosphatidylinositol (Liver Bovine, Avanti Polar Lipids Cat. No. 840042C MW=909.12) prepared in 3% OctylGlucoside (10 μg/ml in final) • 9.8 mL of ‘buffer’ • 10 mL ‘ATP’ are prepared per assay: • 6.7 μL of 3 mM stock of ATP giving a final concentration of 1 μM per well • 10 mL of ‘buffer’ • 2.5 mL of each PI3K construct are prepared per assay in ‘PI’ with the following final concentration: • 10 nM PI3K alfa EMV B1075 • 25 nM beta EMV BV949 • 10 nM delta EMV BV1060 • 150 nM gamma EMV BV950 • 5 μL of ‘PI/PI3K’ are added per well. • 5 μl ‘ATP’ are added per well to start the reaction. • The plates are then incubated at room temperature for 60 minutes (alfa, beta, delta) or 120 minutes (gamma). • The reaction is terminated by the addition of 10 μL Kinase-Glo (Promega Cat. No. #6714). • The assay plates are read after 10 minutes in Synergy 2 reader (BioTek, Vermont USA) with an integration time of 100 milliseconds and sensitivity set to 191. • Output: The High control is around 60′000 counts and the Low control is 30′000 or lower • This luminescence assay gives a useful Z′ ratio between 0.4 and 0.7
PI3Kβ BV-949 p85(iSH2)-Gly linker-r 110b(full-length)-C-term His Tag
PI3K beta is purified in two chromatographic steps: immobilized metal affinity chromatography (IMAC) on a Ni Sepharose resin (GE Healthcare) and gel filtration (GFC) utilizing a Superdex 200 26/60 column (GE Healthcare). All buffers are chilled to 4° C. and lysis is performed chilled on ice. Column fractionation is performed rapidly at room temperature.
IC50 is determined by a four parameter curve fitting routine that comes along with “excel fit”. A 4 Parameter logistic equation is used to calculate IC50 values (IDBS XLfit) of the percentage inhibition of each compound at 8 concentrations (usually 10, 3.0, 1.0, 0.3, 0.1, 0.030, 0.010 and 0.003 μM). Alternatively, IC50 values are calculated using idbsXLfit model 204, which is a 4 parameter logistic model.
(Kinase-Glo measures the ATP left after a reaction by luminescence.)
`Cc1ncccc1-n1c(=O)n(C)c2cnc3ccc(-c4cncc(NC(C)C)c4)cc3c21` [Example 2.24, 8-(5-Isopropylamino-pyridin-3-yl)-3-methyl-1-(2-methyl-pyridin-3-yl)-1,3-dihydro-imidazo[4,5-c]quinolin-2-one]: the IC50 was found to be 40 nM.

Regarding `Cc1ncccc1-n1c(=O)n(C)c2cnc3ccc(-c4cncc(N)c4)cc3c21` [Example 2.25, 8-(5-Amino-pyridin-3-yl)-3-methyl-1-(2-methyl-pyridin-3-yl)-1,3-dihydro-imidazo[4,5-c]quinolin-2-one], the IC50 worked out at 143 nM.

Staying with this assay, now noted: read-out: PI3Kbeta/IC50.
For the compound `COc1ncccc1-n1c(=O)n(C)c2cnc3ccc(-c4cnc5[nH]ccc5c4)cc3c21` [Example 1.2, 1-(2-Methoxy-pyridin-3-yl)-3-methyl-8-(1H-pyrrolo[2,3-b]pyridin-5-yl)-1,3-dihydro-imidazo[4,5-c]quinolin-2-one], the IC50 stood at 115 nM.

In the case of `COc1ncccc1-n1c(=O)n(C)c2cnc3ccc(-c4ccc(C(N)=O)cc4)cc3c21` [Example 1.6, 4-[1-(2-Methoxy-pyridin-3-yl)-3-methyl-2-oxo-2,3-dihydro-1H-imidazo[4,5-c]quinolin-8-yl]-benzamide], the IC50 was found to be 491 nM.

`Cc1ncccc1-n1c(=O)n(C)c2cnc3ccc(-c4ccc(C(N)=O)cc4)cc3c21` [Example 2.3, 4-[3-Methyl-1-(2-methyl-pyridin-3-yl)-2-oxo-2,3-dihydro-1H-imidazo[4,5-c]quinolin-8-yl]-benzamide]: the IC50 was determined as 577 nM.

In the case of `CCOc1ncc(-c2ccc3ncc4c(c3c2)n(-c2cccnc2C)c(=O)n4C)cn1` [Example 2.5, 8-(2-Ethoxy-pyrimidin-5-yl)-3-methyl-1-(2-methyl-pyridin-3-yl)-1,3-dihydro-imidazo[4,5-c]quinolin-2-one], the IC50 was found to be 749 nM.

For the compound `Cc1ncccc1-n1c(=O)n(C)c2cnc3ccc(-c4ccc(CO)nc4)cc3c21` [Example 2.6, 8-(6-Hydroxymethyl-pyridin-3-yl)-3-methyl-1-(2-methyl-pyridin-3-yl)-1,3-dihydro-imidazo[4,5-c]quinolin-2-one], the IC50 is 706 nM.

Consider `Cc1ncccc1-n1c(=O)n(C)c2cnc3ccc(-c4ccc(N)nc4)cc3c21` [Example 2.7, 8-(6-Amino-pyridin-3-yl)-3-methyl-1-(2-methyl-pyridin-3-yl)-1,3-dihydro-imidazo[4,5-c]quinolin-2-one], for which the IC50 is 133 nM.

`COc1ccc(-c2ccc3ncc4c(c3c2)n(-c2cccnc2C)c(=O)n4C)cc1OC` [Example 2.9, 8-(3,4-Dimethoxy-phenyl)-3-methyl-1-(2-methyl-pyridin-3-yl)-1,3-dihydro-imidazo[4,5-c]quinolin-2-one]: the IC50 turned out to be 77 nM.

Take `Cc1ncccc1-n1c(=O)n(C)c2cnc3ccc(-c4cnc(N)c(C(F)(F)F)c4)cc3c21` [Example 2.11, 8-(6-Amino-5-trifluoromethyl-pyridin-3-yl)-3-methyl-1-(2-methyl-pyridin-3-yl)-1,3-dihydro-imidazo[4,5-c]quinolin-2-one]: the IC50 was 14 nM.

As to `COc1ccc(-c2ccc3ncc4c(c3c2)n(-c2cccnc2C)c(=O)n4C)cn1` [Example 2.12, 8-(6-Methoxy-pyridin-3-yl)-3-methyl-1-(2-methyl-pyridin-3-yl)-1,3-dihydro-imidazo[4,5-c]quinolin-2-one], the IC50 was 132 nM.

On to `CNc1ccc(-c2ccc3ncc4c(c3c2)n(-c2cccnc2C)c(=O)n4C)cn1` [Example 2.13, 3-Methyl-8-(6-methylamino-pyridin-3-yl)-1-(2-methyl-pyridin-3-yl)-1,3-dihydro-imidazo[4,5-c]quinolin-2-one], for which the IC50 stood at 226 nM.

`Cc1ncccc1-n1c(=O)n(C)c2cnc3ccc(-c4cnc(N(C)C)nc4)cc3c21` [Example 2.15, 8-(2-Dimethylamino-pyrimidin-5-yl)-3-methyl-1-(2-methyl-pyridin-3-yl)-1,3-dihydro-imidazo[4,5-c]quinolin-2-one]: the IC50 was 360 nM.
